# Data from US20090023186A1, “USE OF VALPROIC ACID FOR ENHANCING PRODUCTION OF RECOMBINANT PROTEINS IN MAMMALIAN CELLS” (EXCELLGENE SA, priority 2007, published 2009).
# Test system: HEK293E cells
# Assay: Stable cell lines, IgG batch titer by ELISA (Example 5)
# Type: cell-based, Human
# Details: 4 mmol/l final VPA; stable mass culture; 5 days after VPA addition
# Description: 20 million suspension-adapted HEK293E cells were resuspended in 1 ml of Ex-Cell 293 HEK 293 serum-free medium with 4 mmol/l L-glutamine (Cat. No. 14571C-1000M; Lot No. 6A0093; SAFC Biosciences, Lenexa, Kans., USA, “Ex-Cell” medium; note: “Ex-Cell” medium-as used herein-refers to a medium comprising 4 mmol/l L-glutamine) in a 50-ml filter tube each (TPP AG, Trasadingen, Switzerland; Cat. No. 87050, Lot 20050174). Then 50 μg plasmid DNA at a concentration of 1 μg/μl was added in each tube with the following composition 5% (2.5 μg) p-LC (SEQ ID NO: 1) 5% (2.5 μg) p-HC (SEQ ID NO: 3) 90% (45 μg) p-puro (SEQ ID NO: 13). Plasmid p-LC comprises the genetic information for the production of the light chain of an IgG antibody, plasmid p-HC comprises the genetic information for the production of the heavy chain of an IgG antibody, plasmid p-puro comprises the genetic information for the enzyme puromycin-N-acetyl-transferase, which is encoded by the pac gene, the puromycin resistance gene. […] In short, Goat anti-human kappa light chain IgG (Biosource) was used for coating the ELISA-plates, and with AP-conjugated goat anti-human gamma chain IgG (Biosource) the synthesized IgG1 was detected. […] Absorption was measured at 405 nm against 490 nm using a microplate reader (SPECTRAmaxTM340; Molecular Devices, Palo Alto, Calif., USA).
structure (smiles),measurement,value
"CCCC(CCC)C(=O)O [VPA, valproic acid]",Batch titer HEK293E,47.8 ± 4.8 mg/L
